Measurements from PubChem BioAssay AID1963451 (Molecular Pharmacology Branch, DTP, NCI, 2024).
“And” between values parts separate entries of the source, which are not always exact repeats. Identical values can stand only once.

Test system: 521955-158-R6-J3-PDC complex spheroid growth, % test/control
Assay: Anticancer human tumor 521955-158-R6-J3-PDC patient-derived pancreatic carcinoma cell line growth inhibition [Asc]
Settings: for viability, T/C: stronger effect = lower value
Procedure, shortened: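 Spheroid model: tumor line + HUVEC + hMSC. Single agents and combinations; top conc. at/near clinical Cmax (10 microM if undetermined), half-log dilutions. DMSO stocks at 800-fold test concentration.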

[1] = curve of first compound, second compound 0.00949 µM
[2] = curve of first compound, second compound 0.03 µM
[3] = curve of first compound, second compound 0.0949 µM
[4] = curve of first compound, second compound 0.3 µM
[5] = curve of first compound, second compound 0.949 µM
[6] = curve of first compound, second compound 3 µM
[7] = second compound 0.00949 µM, first compound 0.00316 µM
[8] = second compound 0.00949 µM, first compound 0.01 µM
[9] = second compound 0.00949 µM, first compound 0.0316 µM
[10] = second compound 0.00949 µM, first compound 0.1 µM
[11] = second compound 0.00949 µM, first compound 0.316 µM
[12] = second compound 0.00949 µM, first compound 1 µM
[13] = second compound 0.03 µM, first compound 0.00316 µM
[14] = second compound 0.03 µM, first compound 0.01 µM
[15] = second compound 0.03 µM, first compound 0.0316 µM
[16] = second compound 0.03 µM, first compound 0.1 µM
[17] = second compound 0.03 µM, first compound 0.316 µM
[18] = second compound 0.03 µM, first compound 1 µM
[19] = second compound 0.0949 µM, first compound 0.00316 µM
[20] = second compound 0.0949 µM, first compound 0.01 µM
[21] = second compound 0.0949 µM, first compound 0.0316 µM
[22] = second compound 0.0949 µM, first compound 0.1 µM
[23] = second compound 0.0949 µM, first compound 0.316 µM
[24] = second compound 0.0949 µM, first compound 1 µM
[25] = second compound 0.3 µM, first compound 0.00316 µM
[26] = second compound 0.3 µM, first compound 0.01 µM
[27] = second compound 0.3 µM, first compound 0.0316 µM
[28] = second compound 0.3 µM, first compound 0.1 µM
[29] = second compound 0.3 µM, first compound 0.316 µM
[30] = second compound 0.3 µM, first compound 1 µM
[31] = second compound 0.949 µM, first compound 0.00316 µM
[32] = second compound 0.949 µM, first compound 0.01 µM
[33] = second compound 0.949 µM, first compound 0.0316 µM
[34] = second compound 0.949 µM, first compound 0.1 µM
[35] = second compound 0.949 µM, first compound 0.316 µM
[36] = second compound 0.949 µM, first compound 1 µM
[37] = second compound 3 µM, first compound 0.00316 µM
[38] = second compound 3 µM, first compound 0.01 µM
[39] = second compound 3 µM, first compound 0.0316 µM
[40] = second compound 3 µM, first compound 0.1 µM
[41] = second compound 3 µM, first compound 0.316 µM
[42] = second compound 3 µM, first compound 1 µM
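Also: spheroids exposed to compounds for 7 days.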
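For viability, T/C in this document: 100% = DMSO vehicle control wells.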

Compound: CCN1CCN(Cc2ccc(Nc3ncc(F)c(-c4cc(F)c5nc(C)n(C(C)C)c5c4)n3)nc2)CC1 + CCN1C(C(=O)NC23CCC(C(=O)O)(CC2)CC3)C(c2cccc(Cl)c2F)C2(C(=O)Nc3cc(Cl)ccc32)C12CCCCC2
- IC50 [1]: > 1 µM
- IC50 [2]: > 1 µM
- IC50 [3]: > 1 µM
- IC50 [4]: > 1 µM
- IC50 [5]: > 1 µM
- IC50 [6]: > 1 µM
- viability, T/C [7]: 102%
- viability, T/C [8]: 90.3%
- viability, T/C [9]: 79.1%
- viability, T/C [10]: 101%
- viability, T/C [11]: 89.1%
- viability, T/C [12]: 88.6%
- viability, T/C [13]: 101%
- viability, T/C [14]: 104%
- viability, T/C [15]: 88.5%
- viability, T/C [16]: 92.2%
- viability, T/C [17]: 92.9%
- viability, T/C [18]: 102%
- viability, T/C [19]: 112%
- viability, T/C [20]: 101%
- viability, T/C [21]: 97.4%
- viability, T/C [22]: 95.5%
- viability, T/C [23]: 91.3%
- viability, T/C [24]: 106%
- viability, T/C [25]: 106%
- viability, T/C [26]: 112%
- viability, T/C [27]: 102%
- viability, T/C [28]: 87.8%
- viability, T/C [29]: 93.1%
- viability, T/C [30]: 90.2%
- viability, T/C [31]: 108%
- viability, T/C [32]: 98.5%
- viability, T/C [33]: 109%
- viability, T/C [34]: 93.2%
- viability, T/C [35]: 93.3%
- viability, T/C [36]: 102%
- viability, T/C [37]: 106%
- viability, T/C [38]: 101%
- viability, T/C [39]: 91.5%
- viability, T/C [40]: 84.8%
- viability, T/C [41]: 103%
- viability, T/C [42]: 93.2%

Compound: O=C(c1ccc(F)c(F)c1Nc1ccc(I)cc1F)N1CC(O)([C@@H]2CCCCN2)C1 + CCN1C(C(=O)NC23CCC(C(=O)O)(CC2)CC3)C(c2cccc(Cl)c2F)C2(C(=O)Nc3cc(Cl)ccc32)C12CCCCC2
- IC50 [1]: 0.563 µM
- IC50 [2]: 0.587 µM
- IC50 [3]: 0.389 µM
- IC50 [4]: 0.559 µM
- IC50 [5]: 0.38 µM
- IC50 [6]: 0.322 µM
- viability, T/C [7]: 85.8%
- viability, T/C [8]: 102%
- viability, T/C [9]: 134%
- viability, T/C [10]: 105%
- viability, T/C [11]: 65.1%
- viability, T/C [12]: 35%
- viability, T/C [13]: 113%
- viability, T/C [14]: 106%
- viability, T/C [15]: 104%
- viability, T/C [16]: 104%
- viability, T/C [17]: 68.5%
- viability, T/C [18]: 34%
- viability, T/C [19]: 104%
- viability, T/C [20]: 111%
- viability, T/C [21]: 114%
- viability, T/C [22]: 90.7%
- viability, T/C [23]: 53.5%
- viability, T/C [24]: 38.3%
- viability, T/C [25]: 121%
- viability, T/C [26]: 117%
- viability, T/C [27]: 120%
- viability, T/C [28]: 86.3%
- viability, T/C [29]: 63.2%
- viability, T/C [30]: 38.7%
- viability, T/C [31]: 118%
- viability, T/C [32]: 115%
- viability, T/C [33]: 120%
- viability, T/C [34]: 80%
- viability, T/C [35]: 57.2%
- viability, T/C [36]: 38.5%
- viability, T/C [37]: 103%
- viability, T/C [38]: 112%
- viability, T/C [39]: 104%
- viability, T/C [40]: 78.5%
- viability, T/C [41]: 52.5%
- viability, T/C [42]: 34.4%

Compound: NC1CCC(NC2CC2c2ccccc2)CC1 (stereo not drawn) + CCN1C(C(=O)NC23CCC(C(=O)O)(CC2)CC3)C(c2cccc(Cl)c2F)C2(C(=O)Nc3cc(Cl)ccc32)C12CCCCC2
- IC50 [1]: > 0.1 µM
- IC50 [2]: > 0.1 µM
- IC50 [3]: > 0.1 µM
- IC50 [4]: > 0.1 µM
- IC50 [5]: > 0.1 µM
- IC50 [6]: > 0.1 µM
- viability, T/C (second compound 0.00949 µM, first compound 0.000316 µM): 112%
- viability, T/C (second compound 0.00949 µM, first compound 0.001 µM): 104%
- viability, T/C [7]: 90.5%
- viability, T/C [8]: 105%
- viability, T/C [9]: 85.3%
- viability, T/C [10]: 108%
- viability, T/C (second compound 0.03 µM, first compound 0.000316 µM): 111%
- viability, T/C (second compound 0.03 µM, first compound 0.001 µM): 106%
- viability, T/C [13]: 100%
- viability, T/C [14]: 99.6%
- viability, T/C [15]: 105%
- viability, T/C [16]: 84.7%
- viability, T/C (second compound 0.0949 µM, first compound 0.000316 µM): 108%
- viability, T/C (second compound 0.0949 µM, first compound 0.001 µM): 118%
- viability, T/C [19]: 120%
- viability, T/C [20]: 127%
- viability, T/C [21]: 99.6%
- viability, T/C [22]: 99.9%
- viability, T/C (second compound 0.3 µM, first compound 0.000316 µM): 94.6%
- viability, T/C (second compound 0.3 µM, first compound 0.001 µM): 108%
- viability, T/C [25]: 111%
- viability, T/C [26]: 101%
- viability, T/C [27]: 110%
- viability, T/C [28]: 102%
- viability, T/C (second compound 0.949 µM, first compound 0.000316 µM): 101%
- viability, T/C (second compound 0.949 µM, first compound 0.001 µM): 125%
- viability, T/C [31]: 114%
- viability, T/C [32]: 105%
- viability, T/C [33]: 113%
- viability, T/C [34]: 96%
- viability, T/C (second compound 3 µM, first compound 0.000316 µM): 113%
- viability, T/C (second compound 3 µM, first compound 0.001 µM): 109%
- viability, T/C [37]: 128%
- viability, T/C [38]: 104%
- viability, T/C [39]: 111%
- viability, T/C [40]: 88.7%

Compound: NC(=O)C(=Cn1cnc(-c2cc(C(F)(F)F)cc(C(F)(F)F)c2)n1)c1cncnc1
- viability, T/C (compound 0.000949 µM): 105% and 126% and 111%
- viability, T/C (compound 0.003 µM): 96.3% and 105% and 115%
- viability, T/C (compound 0.00949 µM): 84.8% and 93.3% and 105%
- viability, T/C (compound 0.03 µM): 98% and 98.2% and 115%
- viability, T/C (compound 0.0949 µM): 124% and 107% and 73.9%
- viability, T/C (compound 0.3 µM): 121% and 93.9% and 62.7%
- IC50 (curve of compound): > 0.3 µM
